{"source": "patent US10954221B2", "about": "“GLP-1R agonists and uses thereof” (QILU REGOR THERAPEUTICS INC., priority 2019, dated 2021)", "molecular_target": "GLP1R (Homo sapiens, UniProt P43220)", "sequence (P43220 24-463)": "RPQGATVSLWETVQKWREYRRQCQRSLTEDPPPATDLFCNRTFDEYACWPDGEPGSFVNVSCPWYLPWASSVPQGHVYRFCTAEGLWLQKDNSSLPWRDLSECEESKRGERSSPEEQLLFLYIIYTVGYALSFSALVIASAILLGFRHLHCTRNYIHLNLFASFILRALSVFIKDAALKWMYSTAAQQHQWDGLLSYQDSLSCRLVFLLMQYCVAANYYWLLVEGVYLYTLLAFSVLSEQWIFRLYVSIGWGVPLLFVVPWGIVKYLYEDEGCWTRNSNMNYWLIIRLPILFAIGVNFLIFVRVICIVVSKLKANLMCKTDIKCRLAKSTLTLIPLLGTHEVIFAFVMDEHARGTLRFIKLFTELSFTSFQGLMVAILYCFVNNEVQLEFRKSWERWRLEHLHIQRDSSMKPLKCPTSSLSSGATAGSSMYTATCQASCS", "test": "GLP1R cAMP assay (HTRF), HEK293/GLP-1R/CRE/Luc, Clone 4", "data": [{"smiles": "O=C(O)c1ccc2nc(Cc3cc(F)c(-c4cccc(OCc5ncc(F)cc5F)n4)cc3F)n(C[C@@H]3CCO3)c2n1", "note": "[Compound 297, (S)-2-(4-(6-((3,5-difluoropyridin-2-yl)methoxy)pyridin-2-yl)-2,5-difluorobenzyl)-3-(oxetan-2-ylmethyl)-3H-imidazo[4,5-b]pyridine-5-carboxylic acid]", "values": [{"measurement": "EC50", "value": "< 15", "unit": "nM"}]}, {"smiles": "O=C(O)c1ccc2nc(Cc3ccc(-c4nc(OCc5ccc(Cl)cc5F)c(F)cc4F)cc3F)n(C[C@@H]3CCO3)c2n1", "note": "[Compound 299, (S)-2-(4-(6-(4-chloro-2-fluorobenzyloxy)-3,5-difluoropyridin-2-yl)-2-fluorobenzyl)-3-(oxetan-2-ylmethyl)-3H-imidazo [4,5-b]pyridine-S-carboxylic acid]", "values": [{"measurement": "EC50", "value": "< 15", "unit": "nM"}]}, {"smiles": "N#Cc1cnc(COc2nc(-c3ccc(Cc4nc5ccc(C(=O)O)nc5n4C[C@@H]4CCO4)cc3F)ncc2F)c(F)c1", "note": "[Compound 302, (S)-2-(4-(4-((5-cyano-3-fluoropyridin-2-yl)methoxy)-5-fluoropyrimidin-2-yl)-3-fluorobenzyl)-3-(oxetan-2-ylmethyl)-3H-imidazo[4,5-b]pyridine-5-carboxylic acid]", "values": [{"measurement": "EC50", "value": "15 to 150", "unit": "nM"}]}, {"smiles": "O=C(O)c1ccc2nc(Cc3ccc(-c4cccc(OCc5ccc(-n6ccnc6)cc5)n4)cc3F)n(C[C@@H]3CCO3)c2n1", "note": "[Compound 304, (S)-2-(4-(6-((4-(1H-imidazol-1-yl)benzyl)oxy)pyridin-2-yl)-2-fluorobenzyl)-3-(oxetan-2-ylmethyl)-3H-imidazo[4,5-b]pyridine-5-carboxylic acid]", "values": [{"measurement": "EC50", "value": "< 15", "unit": "nM"}]}, {"smiles": "O=C(O)c1ccc2nc(Cc3ccc(-c4nc(OCc5ccc(Cl)cc5F)c(F)cc4F)c(F)c3)n(C[C@@H]3CCO3)c2n1", "note": "[Compound 306, (S)-2-(4-(6-((4-chloro-2-fluorobenzyl)oxy)-3,5-difluoropyridin-2-yl)-3-fluorobenzyl)-3-(oxetan-2-ylmethyl)-3H-imidazo[4,5-b]pyridine-5-carboxylic acid]", "values": [{"measurement": "EC50", "value": "< 15", "unit": "nM"}]}, {"smiles": "O=C(O)c1ccc2nc(Cc3ccc(-c4cccc(OCc5ccc(Cl)cc5F)n4)cc3F)n(C[C@@H]3CCO3)c2c1F", "note": "[Compound 309, (S)-2-(4-(6-((4-chloro-2-fluorobenzyl)oxy)pyridin-2-yl)-2-fluorobenzyl)-7-fluoro-1-(oxetan-2-ylmethyl)-1H-benzo[d]imidazole-6-carboxylic acid]", "values": [{"measurement": "EC50", "value": "< 15", "unit": "nM"}]}, {"smiles": "N#Cc1ccc(COc2nc(-c3cc(F)c(Cc4nc5ccc(C(=O)O)c(F)c5n4C[C@@H]4CCO4)cc3F)ncc2F)nc1", "note": "[Compound 313, (S)-2-(4-(4-((5-cyanopyridin-2-yl)methoxy)-5-fluoropyrimidin-2-yl)-2,5-difluorobenzyl)-7-fluoro-1-(oxetan-2-ylmethyl)-1H-benzo[d]imidazole-6-carboxylic acid]", "values": [{"measurement": "EC50", "value": "< 15", "unit": "nM"}]}, {"smiles": "N#Cc1ccc(COc2cccc(N3CCC(=Cc4nc5ccc(C(=O)O)nc5n4C[C@@H]4CCO4)CC3)n2)c(F)c1", "note": "[Compound 314, (S)-2-((1-(6-(4-cyano-2-fluorobenzyloxy)pyridin-2-yl)piperidin-4-ylidene)methyl)-3-(oxetan-2-ylmethyl)-3H-imidazo [4,5-b] pyridine-S-carboxylic acid]", "values": [{"measurement": "EC50", "value": "15 to 150", "unit": "nM"}]}, {"smiles": "O=C(O)c1ccc2nc(C=C3CCN(c4cccc(OCc5ccc(F)cc5F)n4)CC3)n(C[C@@H]3CCO3)c2n1", "note": "[Compound 315, (S)-2-((1-(6-(2,4-difluorobenzyloxy)pyridin-2-yl)piperidin-4-ylidene)methyl)-3-(oxetan-2-ylmethyl)-3H-imidazo[4,5-b]pyridine-5-carboxylic acid]", "values": [{"measurement": "EC50", "value": "150 to 1000", "unit": "nM"}]}, {"smiles": "N#Cc1ccc(COc2cccc(N3CCC(=Cc4nc5ccc(C(=O)O)nc5n4C[C@@H]4CCO4)CC3)n2)nc1", "note": "[Compound 316, (S)-2-((1-(6-((5-cyanopyridin-2-yl)methoxy)pyridin-2-yl)piperidin-4-ylidene)methyl)-3-(oxetan-2-ylmethyl)-3H-imidazo[4,5-b]pyridine-5-carboxylic acid]", "values": [{"measurement": "EC50", "value": "15 to 150", "unit": "nM"}]}]}
